ChEMBL document CHEMBL1201862, “PubChem BioAssay data set” (2004)
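Interpolation was linear, between the two tested concentrations surrounding the appropriate level; five concentrations were tested over 48 hours in 96-well plates. GI50 = concentration required for 50% inhibition of growth.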 The source made the active and inactive calls. No stated cut-off is given here; in the data, active = GI50 up to about 1.1 µM and inactive = higher.

What was measured:
Assay in all cases: NCI-60 cell line screen, 48 h
CAKI-1 = system: CAKI-1
LOX IMVI = system: LOX IMVI
TK-10 = system: TK-10
MDA-MB-435 = system: MDA-MB-435
Hs-578T = system: Hs-578T
A498 = system: A498
UACC-257 = system: UACC-257
MDA-MB-231 = system: MDA-MB-231
COLO 205 = system: COLO 205
ACHN = system: ACHN
MOLT-4 = system: MOLT-4
KM12 = system: KM12
HL-60 = system: HL-60
HCC 2998 = system: HCC 2998
OVCAR-5 = system: OVCAR-5
HCT-116 = system: HCT-116
MCF7 = system: MCF7
UO-31 = system: UO-31

## c1ccc2[nH]c3nc4ccccc4c-3cc2c1
CAKI-1
  GI50: 0.524 µM (active)
LOX IMVI
  GI50: 0.18 µM (active)
TK-10
  GI50: 1.54 µM (inactive)
MDA-MB-435
  GI50: 0.54 µM (active)
Hs-578T
  GI50: 0.966 µM (active)
A498
  GI50: 3.33 µM (inactive)
UACC-257
  GI50: 0.637 µM (active)
MDA-MB-231
  GI50: 1.24 µM (inactive)
COLO 205
  GI50: 0.207 µM (active)
ACHN
  GI50: 0.113 µM (active)
MOLT-4
  GI50: 0.0942 µM (active)
KM12
  GI50: 0.348 µM (active)
HL-60
  GI50: 0.192 µM (active)
HCC 2998
  GI50: 0.757 µM (active)
OVCAR-5
  GI50: 1.69 µM (inactive)
HCT-116
  GI50: < 0.0311 µM (active)
MCF7
  GI50: 0.304 µM (active)
UO-31
  GI50: 0.597 µM (active)

## O=C1Sc2ccc(Br)cc2C(=O)Sc2ccccc21
CAKI-1
  GI50: 14.6 µM (inactive)
LOX IMVI
  GI50: 9.1 µM (inactive)
TK-10
  GI50: 17.9 µM (inactive)
MDA-MB-435
  GI50: 7.91 µM (inactive)
Hs-578T
  GI50: 11.4 µM (inactive)
A498
  GI50: 20.9 µM (inactive)
UACC-257
  GI50: 13.8 µM (inactive)
MDA-MB-231
  GI50: 16.5 µM (inactive)
COLO 205
  GI50: 13.2 µM (inactive)
ACHN
  GI50: 16.4 µM (inactive)
MOLT-4
  GI50: 4.34 µM (inactive)
KM12
  GI50: 16 µM (inactive)
HL-60
  GI50: 2.42 µM (inactive)
HCC 2998
  GI50: 14.5 µM (inactive)
OVCAR-5
  GI50: 17.9 µM (inactive)
HCT-116
  GI50: 13 µM (inactive)
MCF7
  GI50: 16.4 µM (inactive)
UO-31
  GI50: 12.9 µM (inactive)

## CCc1nc(N)nc(N)c1-c1ccc(Cc2ccccc2)c([N+](=O)[O-])c1
CAKI-1
  GI50: 0.0183 µM (active)
LOX IMVI
  GI50: < 0.01 µM (active)
TK-10
  GI50: 29.5 µM (inactive)
MDA-MB-435
  GI50: < 0.01 µM (active)
Hs-578T
  GI50: 12.3 µM (inactive)
A498
  GI50: 3.05 µM (inactive)
UACC-257
  GI50: 23.6 µM (inactive)
MDA-MB-231
  GI50: 38.3 µM (inactive)
COLO 205
  GI50: 0.561 µM (active)
ACHN
  GI50: < 0.01 µM (active)
MOLT-4
  GI50: < 0.0127 µM (active)
KM12
  GI50: 0.0762 µM (active)
HL-60
  GI50: < 0.01 µM (active)
HCC 2998
  GI50: 0.151 µM (active)
OVCAR-5
  GI50: > 55 µM (inactive)
HCT-116
  GI50: < 0.01 µM (active)
MCF7
  GI50: 0.0484 µM (active)
UO-31
  GI50: 0.124 µM (active)

## O=C1OC(C2=CC(=O)c3ccccc3C2=O)C(Cl)=C1Cl (stereo not given)
CAKI-1
  GI50: 67.9 µM (inactive)
LOX IMVI
  GI50: 20.2 µM (inactive)
TK-10
  GI50: 66.7 µM (inactive)
MDA-MB-435
  GI50: 35.6 µM (inactive)
Hs-578T
  GI50: 54.7 µM (inactive)
A498
  GI50: 42.8 µM (inactive)
UACC-257
  GI50: 77.8 µM (inactive)
MDA-MB-231
  GI50: 11.6 µM (inactive)
COLO 205
  GI50: 35 µM (inactive)
ACHN
  GI50: 15.8 µM (inactive)
MOLT-4
  GI50: 34.4 µM (inactive)
KM12
  GI50: 77.4 µM (inactive)
HL-60
  GI50: 35.9 µM (inactive)
HCC 2998
  GI50: 25.1 µM (inactive)
OVCAR-5
  GI50: 36.3 µM (inactive)
HCT-116
  GI50: 32.4 µM (inactive)
MCF7
  GI50: 20.9 µM (inactive)
UO-31
  GI50: 13.7 µM (inactive)

## CC1=NN(c2ccccc2)C(=O)/C1=C\c1c(C)[nH]n(-c2ccccc2)c1=O
CAKI-1
  GI50: > 100 µM (inactive)
TK-10
  GI50: > 100 µM (inactive)
MDA-MB-435
  GI50: > 100 µM (inactive)
Hs-578T
  GI50: > 100 µM (inactive)
A498
  GI50: > 100 µM (inactive)
UACC-257
  GI50: > 100 µM (inactive)
MDA-MB-231
  GI50: > 100 µM (inactive)
COLO 205
  GI50: > 100 µM (inactive)
ACHN
  GI50: > 100 µM (inactive)
MOLT-4
  GI50: > 100 µM (inactive)
KM12
  GI50: > 100 µM (inactive)
HL-60
  GI50: > 100 µM (inactive)
HCC 2998
  GI50: > 100 µM (inactive)
OVCAR-5
  GI50: > 100 µM (inactive)
HCT-116
  GI50: > 100 µM (inactive)
MCF7
  GI50: > 100 µM (inactive)
UO-31
  GI50: > 100 µM (inactive)

## Cc1nc2c(=O)[nH]c(=O)nc-2n(CCO)c1C
CAKI-1
  GI50: > 100 µM (inactive)
LOX IMVI
  GI50: > 100 µM (inactive)
TK-10
  GI50: > 100 µM (inactive)
MDA-MB-435
  GI50: > 100 µM (inactive)
Hs-578T
  GI50: > 100 µM (inactive)
A498
  GI50: > 100 µM (inactive)
UACC-257
  GI50: > 100 µM (inactive)
MDA-MB-231
  GI50: > 100 µM (inactive)
COLO 205
  GI50: > 100 µM (inactive)
ACHN
  GI50: > 100 µM (inactive)
MOLT-4
  GI50: > 100 µM (inactive)
KM12
  GI50: > 100 µM (inactive)
HCC 2998
  GI50: > 100 µM (inactive)
OVCAR-5
  GI50: > 100 µM (inactive)
HCT-116
  GI50: > 100 µM (inactive)
MCF7
  GI50: > 100 µM (inactive)
UO-31
  GI50: > 100 µM (inactive)

## COc1ccccc1/C=C/c1c(N)ncnc1Nc1cccc(Cl)c1
CAKI-1
  GI50: 20.9 µM (inactive)
TK-10
  GI50: 14.5 µM (inactive)
MDA-MB-435
  GI50: 16.7 µM (inactive)
Hs-578T
  GI50: 16.9 µM (inactive)
A498
  GI50: 12.7 µM (inactive)
UACC-257
  GI50: 19.3 µM (inactive)
MDA-MB-231
  GI50: 17.7 µM (inactive)
ACHN
  GI50: 6.56 µM (inactive)
MOLT-4
  GI50: 0.311 µM (active)
KM12
  GI50: 36.5 µM (inactive)
HL-60
  GI50: 0.282 µM (active)
HCC 2998
  GI50: 27.4 µM (inactive)
OVCAR-5
  GI50: 31.8 µM (inactive)
HCT-116
  GI50: 23.5 µM (inactive)
MCF7
  GI50: 25.8 µM (inactive)
UO-31
  GI50: 20.6 µM (inactive)

## COC(=O)C1=C([C@H]2COC(C)(C)O2)[C@H]2C[C@@H]1[C@@H]1OC(C)(C)O[C@@H]12
LOX IMVI
  GI50: > 100 µM (inactive)
TK-10
  GI50: > 100 µM (inactive)
MDA-MB-435
  GI50: > 100 µM (inactive)
Hs-578T
  GI50: > 100 µM (inactive)
A498
  GI50: > 100 µM (inactive)
UACC-257
  GI50: > 100 µM (inactive)
MDA-MB-231
  GI50: > 100 µM (inactive)
COLO 205
  GI50: > 100 µM (inactive)
ACHN
  GI50: > 100 µM (inactive)
MOLT-4
  GI50: > 100 µM (inactive)
KM12
  GI50: > 100 µM (inactive)
HL-60
  GI50: > 100 µM (inactive)
HCC 2998
  GI50: > 100 µM (inactive)
OVCAR-5
  GI50: > 100 µM (inactive)
HCT-116
  GI50: > 100 µM (inactive)
MCF7
  GI50: > 100 µM (inactive)
UO-31
  GI50: > 100 µM (inactive)

## CNc1ccc(C(=O)CC(O)CCC(C)C2OC(=O)CC(O)CC(=O)CC(O)CC(O)CC(O)CC(O)CC3(O)CC(O)C(C(=O)NCCN(C)C)C(CC(OC4OC(C)C(O)C(NC(=O)CN5CCN(C)CC5)C4O)\C=C/C=C\C=C/C=C/C=C/C=C\C=C/C2C)O3)cc1 (stereo not given)
CAKI-1
  GI50: > 100 µM (inactive)
LOX IMVI
  GI50: 2.92 µM (inactive)
TK-10
  GI50: 22.5 µM (inactive)
MDA-MB-435
  GI50: 14.9 µM (inactive)
Hs-578T
  GI50: 1.91 µM (inactive)
A498
  GI50: 2.56 µM (inactive)
UACC-257
  GI50: 10.7 µM (inactive)
MDA-MB-231
  GI50: 81.7 µM (inactive)
COLO 205
  GI50: 3.86 µM (inactive)
ACHN
  GI50: 2.84 µM (inactive)
MOLT-4
  GI50: 4.48 µM (inactive)
KM12
  GI50: 2.08 µM (inactive)
HL-60
  GI50: 7.29 µM (inactive)
HCC 2998
  GI50: 2.55 µM (inactive)
OVCAR-5
  GI50: 57.4 µM (inactive)
MCF7
  GI50: 2.36 µM (inactive)
UO-31
  GI50: 4.34 µM (inactive)

## O=c1c2cc([N+](=O)[O-])ccc2n2n1Cc1ccccc1C2
CAKI-1
  GI50: 75 µM (inactive)
LOX IMVI
  GI50: > 100 µM (inactive)
TK-10
  GI50: > 100 µM (inactive)
MDA-MB-435
  GI50: > 100 µM (inactive)
Hs-578T
  GI50: 43.4 µM (inactive)
A498
  GI50: 63.8 µM (inactive)
UACC-257
  GI50: > 100 µM (inactive)
MDA-MB-231
  GI50: > 100 µM (inactive)
COLO 205
  GI50: > 100 µM (inactive)
ACHN
  GI50: > 100 µM (inactive)
MOLT-4
  GI50: 35.8 µM (inactive)
KM12
  GI50: > 100 µM (inactive)
HL-60
  GI50: > 100 µM (inactive)
HCC 2998
  GI50: > 100 µM (inactive)
HCT-116
  GI50: > 100 µM (inactive)
MCF7
  GI50: > 100 µM (inactive)
UO-31
  GI50: 53.3 µM (inactive)

## c1ccc(Nc2nn3c(CCCCCCCCc4nnc5sc(Nc6ccccc6)nn45)nnc3s2)cc1
CAKI-1
  GI50: 29 µM (inactive)
LOX IMVI
  GI50: 22.1 µM (inactive)
TK-10
  GI50: 28.1 µM (inactive)
MDA-MB-435
  GI50: 25.4 µM (inactive)
Hs-578T
  GI50: 31.2 µM (inactive)
A498
  GI50: 36.2 µM (inactive)
UACC-257
  GI50: 34.2 µM (inactive)
MDA-MB-231
  GI50: 28.7 µM (inactive)
COLO 205
  GI50: 19.5 µM (inactive)
ACHN
  GI50: 35.8 µM (inactive)
MOLT-4
  GI50: 14.7 µM (inactive)
KM12
  GI50: 32.2 µM (inactive)
HCC 2998
  GI50: 60.8 µM (inactive)
OVCAR-5
  GI50: 36.9 µM (inactive)
HCT-116
  GI50: 24.3 µM (inactive)
MCF7
  GI50: 26.4 µM (inactive)
UO-31
  GI50: 22.1 µM (inactive)
